Data: US20190284129A1, “LIPID COMPOUNDS AND COMPOSITIONS AND THEIR OPTHALMIC USE” (BIOZEP AS, priority 2015, published 2019)

Legend:
Type in all cases: cell-based
human PPARbeta/delta = biological target: T1, human PPARbeta/delta (Homo sapiens, UniProt Q03181); assay: cellular GAL4 reporter gene assay, agonist mode, PPARbeta/delta
T1 construct: expressed in transfected cells; host or cells: HEK293 (DSMZ ACC 305)
T1 sequence (Q03181 211-439 limits assumed): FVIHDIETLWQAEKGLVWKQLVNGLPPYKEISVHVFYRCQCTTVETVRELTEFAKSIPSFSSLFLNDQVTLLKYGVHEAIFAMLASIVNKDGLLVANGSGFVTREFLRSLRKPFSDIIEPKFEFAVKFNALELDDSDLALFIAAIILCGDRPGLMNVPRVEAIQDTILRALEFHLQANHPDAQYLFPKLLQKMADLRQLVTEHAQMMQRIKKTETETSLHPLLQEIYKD
Excerpt: (§1) The assays were done in HEK293 cells (DSMZ ACC 305). The plasmids used in the GAL4 assay system were derivatives of Stratagene's […] plasmids: the reporter plasmid pFR-Luc (containing a synthetic promoter with five tandem repeats of the yeast GAL4 binding sites that control expression of the Photinus pyralis (American firefly) luciferase gene), and pCMV-BD (for fusions of nuclear receptor ligand binding domains to the DNA-binding domain of the yeast protein GAL4). In order to improve experimental accuracy, a second reporter-Renilla reniformis luciferase, driven by a constitutive promoter-was included as an internal control. Using the control reporter (Renilla Luciferase) allowed corrections for variations in experimental handling, e.g. transfection efficacy, cell viability, pipetting errors, cell lysis efficiency and assay efficiency. […] The compounds BIZ-102 and BIZ-103 were tested at the human PPARbeta/delta and PPARgamma receptors using the same cellular GAL4 Reporter gene assays as in Example 6. The assays were run in agonist mode to detect agonistic activities of the tested compounds.

human PPARgamma = biological target: T2, human PPARgamma (Homo sapiens, UniProt P37231); assay: cellular GAL4 reporter gene assay, agonist mode, PPARgamma
T2 construct: expressed in transfected cells; host or cells: HEK293 (DSMZ ACC 305)
T2 sequence (P37231 238-503 limits assumed): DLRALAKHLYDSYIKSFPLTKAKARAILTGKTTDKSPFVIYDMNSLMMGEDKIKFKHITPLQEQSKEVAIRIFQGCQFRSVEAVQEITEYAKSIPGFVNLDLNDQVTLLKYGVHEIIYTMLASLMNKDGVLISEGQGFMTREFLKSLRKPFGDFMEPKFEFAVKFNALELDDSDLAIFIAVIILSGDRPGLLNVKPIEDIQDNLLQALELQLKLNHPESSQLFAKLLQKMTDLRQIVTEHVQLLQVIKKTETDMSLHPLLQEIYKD
Excerpt: as §1

ARPE-19 cells = assay: oxidative stress (tert-butyl hydroperoxide) cytolysis assay in ARPE-19 retinal pigment epithelial cells; conditions: for inhibition of the cytotoxicity induced by t-BHP: BIZ-102 10 μM
Protocol: In order to evaluate the potential of BIZ-101 to protective the eye from oxidative stress damage the compound was tested in a cell based assay. Oxidative stress was induced in an ARPE-19 cell line using tert-butyl hydroperoxide at different concentrations. The cellular viability was kinetically monitored and measured by analysing the plasma membrane integrity based on the incorporation of a non-permeant and fluorescent DNA intercalating agent that selectively stain cytolytic cells with comprised plasma membranes.
(§2) The ARPE-19 cell line was seeded and cultured in DMEM-F12 medium+10% SVF for 24 hrs in a 96 well plate. Cells were pre-treated or not with either fenofibric acid (25 μM) or compound BIZ-101 (10 μM) during this 24 hr period. After 24 hrs, the different concentrations of t-butyl hydroperoxide were added in the presence of a fluorescent DNA intercalating agent for the following monitoring. Live content time-lapse imaging was performed with a sampling rate of 1 image every 2 hr over a 96 hrs period. The number of fluorescent/cytolytic cells were counted and reported during the experiment. The treatment conditions were tested in one experiment session in a triplicate format.
Fenofibric acid was used at 25 μM and was ordered from Sigma Aldrich. The day of the pre-treatment, a 25 mM stock solution of fenofibric acid was prepared in DMSO and diluted in the complete culture medium at 25 μM. 100 μL of this solution or 100 μL of complete culture medium+0.1% DMSO replaced the 100 μL of the complete culture medium already present in the well. The day of the treatment with t-butyl hydroperoxide, a 2 times concentrated solution of fenofibric acid was freshly diluted in the complete culture medium and 50 μL of this solution or 50 μL of complete culture medium+0.2% DMSO were added to the 100 μL of the culture medium already present in the well.
Compound BIZ-101 was tested at a final concentration of 10 μM. A 10 mM predilution was prepared in DMSO from a 10 mM stock solution. The 10 mM solution of BIZ 101 was diluted in the complete culture medium at 10 μM. 100 μL, of this solution or 100 μL of the complete culture medium+0.1% DMSO replaced the 100 μL, of the complete culture medium already present in the well. The day of the treatment with t-butyl hydroperoxide, a 2 times concentrated solution of BIZ 101 was freshly diluted in the complete culture medium and 50 μL of this solution or 50 μL of complete culture medium+0.2% DMSO were added to the 100 μL of the culture medium already present in the well.
Preparation of the tert-butyl hydroperoxide [tBHP] solution: 0, 0.01 mM, 0.03 mM, 0.1 mM, 0.3 mM, 1 mM, 3 mM and 10 mM. A 4 times concentrated solution of tBHP was freshly diluted in the complete culture medium for each of the concentrations to be tested. 50 μL of the 4 times concentrated solution was added to the 150 μL of the cultured medium.
In order to evaluate the potential of BIZ-102 to protect the eye from oxidative stress damage the compound was tested in a cell based assay similar to Example 24 with the following changes. The oxidative stress in the ARPE-19 cell line was induced by using 3 different concentrations of tBHP: 10 μM, 30 μM and 100 μM and BIZ-102 was tested in 2 different concentrations: 1 μM and 10 μM.
as §2, with “with” for “with either fenofibric acid (25 μM) or”, “BIZ-102 (1 μM and 10” for “BIZ-101 (10”
Compound BIZ-102 was tested at a final concentration of 1 and 10 μM. […]

- EC50 (human PPARbeta/delta): 4300 nM
- PPARbeta/delta efficacy vs. GW501516 (human PPARbeta/delta): 20%
- EC50 (human PPARgamma): 1500 nM
- PPARgamma efficacy vs. Rosiglitazone (human PPARgamma): 23%
Compound: CCCCC/C=C\C/C=C\C/C=C\C/C=C\CCC(CC)C(=O)O (stereo not shown) [BIZ-102, (All-Z) 2-ethyl-5,8,11,14-eicosatetraenoic Acid]
- inhibition of the cytotoxicity induced by t-BHP (ARPE-19 cells; 10 μM t-BHP, FIG. 9A): significant inhibition
- inhibition of the cytotoxicity induced by t-BHP (ARPE-19 cells; 30 μM t-BHP, FIG. 9B): significant inhibition
- effect on retinal pigment epithelial cells during conditions of oxidative stress (ARPE-19 cells; overall conclusion): protective effect
